Experimental data: publication PMC7926627, “Fine-Tuning the Biological Profile of Multitarget Mitochondriotropic Antioxidants for Neurodegenerative Diseases” (Antioxidants, 2021)

Assays:
[1] = biological target: T1, hBChE (Homo sapiens, UniProt P06276, N45Q/N483Q/N509Q/N514Q); assay: Recombinant hBChE inhibition, Ellman's buffer; assay type: biochemical
T1 construct: made in house
Experimental: (§1) Recombinant hAChE and hBChE were produced and purified as previously described. Test compounds were dissolved in methanol 100 % to prepare stock solutions at 40 mM and subsequently diluted in water to reach the desired concentrations. Recombinant hAChE and hBChE activities were measured in presence of appropriate compound concentrations by spectrophotometry at 412 nm and 25 °C in a 1 mL cuvette containing Ellman’s buffer (0.5 mM DTNB, 0.1% BSA, 0.1 M phosphate, pH 7.4). Measurements were performed at least in duplicate for each tested concentration and final methanol concentrations were kept below 5%.

[2] = biological target: T2, hAChE (Homo sapiens, UniProt P22303); assay: Recombinant hAChE inhibition, Ellman's buffer; assay type: biochemical
T2 construct: made in house
Experimental: as §1

[3] = biological target: T3, eeAChE (electric eel acetylcholinesterase) (Electrophorus electricus, UniProt O42275); assay: eeAChE inhibition, Ellman's method; assay type: biochemical
T3 construct: Eel acetylcholinesterase (eeAChE, E.C. 3.1.1.7, from Electrophorus electricus); purchased Sigma Aldrich
Experimental: The eeAChE and eqBChE inhibitory activities of the compounds under study were determined following the Ellman’s method [32, 33]
Substrate solutions (ATCI or BCTI) were prepared in deionized water (conductivity ˂ 0.1 µS.cm-
Evaluation of eel acetylcholinesterase and equine butyrylcholinesterase inhibitory
The eeAChE and eqBChE inhibitory activities of the compounds under study were evaluated following the Ellman’s method [1, 2]. Briefly, a mixture containing sodium phosphate buffer, enzyme (final concentration: eeAChE 0.05 U/mL and eeBChE 0.05 U/mL), DTNB (final concentration: 400 µM) and the test compounds/reference inhibitors were preincubated for 5 minutes at 30 °C in a 96-well microplate (BRANDplates, pureGradeTM, BRAND GMBH, Wertheim, Germany). In control experiments, sodium phosphate buffer was used instead of the
ºC in a microplate reader (BioTek Synergy HT from BioTek Instruments, Winooski, VT, USA).
The rates of the substrate enzymatic hydrolysis were determined, normalized and plotted against the respective inhibitor concentration. IC50 values were obtained from the dose-response curves
and were expressed as mean ± standard deviation. IC50 values were determined in at least three
independent experiments, each performed at least in triplicates.

[4] = biological target: T4, hMAO-B (Homo sapiens, UniProt P27338); assay: biochemical; set-up: purchased Sigma Aldrich; host or cells: insect cells (BTI-TN-5B1-4), baculovirus
T4 sequence (P27338 1-520): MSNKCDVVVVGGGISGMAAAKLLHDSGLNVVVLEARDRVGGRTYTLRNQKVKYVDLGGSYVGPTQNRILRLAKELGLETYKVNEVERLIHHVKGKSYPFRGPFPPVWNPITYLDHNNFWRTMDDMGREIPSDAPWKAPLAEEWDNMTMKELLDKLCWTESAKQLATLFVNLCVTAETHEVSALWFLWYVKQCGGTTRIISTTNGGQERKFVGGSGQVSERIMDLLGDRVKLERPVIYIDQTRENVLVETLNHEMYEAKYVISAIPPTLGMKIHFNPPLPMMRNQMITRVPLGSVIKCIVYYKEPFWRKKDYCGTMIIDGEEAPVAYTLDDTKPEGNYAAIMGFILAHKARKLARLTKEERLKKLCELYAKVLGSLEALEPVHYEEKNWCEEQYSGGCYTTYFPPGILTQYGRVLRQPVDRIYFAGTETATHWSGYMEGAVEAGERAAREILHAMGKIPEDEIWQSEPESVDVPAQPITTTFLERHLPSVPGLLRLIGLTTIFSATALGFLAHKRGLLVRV
Experimental: (§2) The inhibitory activity of lipophilic TPP^+ cations on hMAO-A and hMAO-B was studied using an experimental protocol described elsewhere [29, 40]
(§3) Evaluation of human monoamine oxidase (hMAO) inhibitory activity The human monoamine oxidase (hMAO) inhibitory outline was assessed in microsomal MAO isoforms prepared from insect cells (BTI-TN-5B1-4) infected with recombinant baculovirus containing cDNA inserts for hMAO-A or hMAO-B an d by measuring the enzymatic conversion rates of kynuramine into 4-hydroxyquinoline. The appropriate amounts of hMAO-A and hMAO-B were adjusted to obtain, in our experimental conditions, the same maximum
(§4) All assays were performed in sodium phosphate buffer solution 50 mM pH 7.4.
(§5) The compounds under study and reference inhibitors were pre-incubated at 37 °C for 10
(§6) concentration: 2×Km) in 96-well microplates (BRANDplates, pureGradeTM, BRAND GMBH, Wertheim, Germany). Then, the reaction was started with the addition of hMAO-A or hMAO-B.
(§7) Initial velocities were determined spectrophotometrically in a microplate reader (BioTek Synergy HT from BioTek Instruments, Winooski, VT, USA) at 37 °C by measuring the formation of 4-
(§8) The initial velocities, obtained from the linear phase of product formation, were normalized and plotted against the respective inhibitor concentration. IC50 values were obtained from dose-response curves and were expressed as mean ± standard deviation. IC50 values were determined from at least three independent experiments, each performed in triplicate.

[5] = system: differentiated SH-SY5Y cells; assay: Neutral red (NR) uptake assay (cytotoxicity); assay type: cell-based, human; settings: 24 h; for effect on NR uptake: increasing concentrations up to 100 µM
Experimental: Controls were treated with culture media containing 0.1% DMSO. Cell viability was estimated using two different methods: resazurin reduction assay and NR uptake assay.
To avoid phenotypic changes, the cells used for all experiments were taken between 19th and 28th passages. Cells were differentiated as described previously by Fernandes et al. [6]. Briefly, SH-SY5Y cells were seeded onto 96-well plates at a density of 25,000 cells/cm2 in cell culture medium with trans-retinoic acid (RA) (final concentration of 10 µM) and incubated for 3 days at
The cell culture medium was then removed and replaced with medium supplemented with 12-O-tetradecanoylphorbol-13-acetate (TPA) (final concentration 80 nM), and cells were incubated for 3 days. Stock solutions of RA (10 mM) and TPA (80 µM) were prepared in DMSO.
The neutral red (NR) uptake assay is based on the ability of viable cells to incorporate the supravital dye NR and retain it inside the lysosomes [11]. NR uptake assay was performed as previously described by Fernandes et al. [12] Briefly, after the 24 h incubation periods with the test compounds, the cell culture medium was removed and NR solution (50 mg/mL) in fresh cell culture medium was added. Differentiated SH-SY5Y cells and Caco-2 cells were incubated for 2
culture medium was removed and replaced by ethanol absolute/distilled water (1:1) with 5 % acetic acid to liberate the dye from the viable cells. The absorbance was measured at 540 nm in a
multiwell microplate reader (PowerWave XS from BioTek Instruments). The results were
expressed as the percentage of NR uptake relative to that of the control (non-treated) cells [NR
uptake (% of control)] ± standard error mean (SEM) of at least three independent experiments.
Stock solutions of the test compounds (10 µM) were prepared in DMSO and diluted in

[6] = biological target: T5, hMAO-A (Homo sapiens, UniProt P21397); assay: hMAO-A inhibition, kynuramine substrate; assay type: biochemical
T5 construct: purchased Sigma Aldrich; host or cells: insect cells (BTI-TN-5B1-4), baculovirus
T5 sequence (P21397 1-527): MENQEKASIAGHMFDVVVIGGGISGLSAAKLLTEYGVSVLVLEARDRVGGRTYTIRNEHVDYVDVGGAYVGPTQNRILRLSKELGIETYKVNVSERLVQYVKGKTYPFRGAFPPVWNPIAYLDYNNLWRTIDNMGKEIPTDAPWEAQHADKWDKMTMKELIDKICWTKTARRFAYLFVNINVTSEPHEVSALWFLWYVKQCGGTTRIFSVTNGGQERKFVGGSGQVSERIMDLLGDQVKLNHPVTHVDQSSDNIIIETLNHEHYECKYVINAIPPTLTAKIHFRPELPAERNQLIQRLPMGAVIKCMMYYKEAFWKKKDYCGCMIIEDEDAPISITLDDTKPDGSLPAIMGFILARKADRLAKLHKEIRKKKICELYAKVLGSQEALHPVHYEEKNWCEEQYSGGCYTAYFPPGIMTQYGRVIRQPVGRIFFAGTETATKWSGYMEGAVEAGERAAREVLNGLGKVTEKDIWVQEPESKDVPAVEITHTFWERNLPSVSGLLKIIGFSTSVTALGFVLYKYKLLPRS
Experimental: as §2, §3, §4, §5, §6, §7, §8

[7] = Oxygen radical absorbance capacity (ORAC-FL) assay; settings: for ROO• radical scavenging: ORAC-FL; for ORAC-FL Index: relative Trolox equivalent ORAC value

T2 sequence (P22303 32-574 limits assumed): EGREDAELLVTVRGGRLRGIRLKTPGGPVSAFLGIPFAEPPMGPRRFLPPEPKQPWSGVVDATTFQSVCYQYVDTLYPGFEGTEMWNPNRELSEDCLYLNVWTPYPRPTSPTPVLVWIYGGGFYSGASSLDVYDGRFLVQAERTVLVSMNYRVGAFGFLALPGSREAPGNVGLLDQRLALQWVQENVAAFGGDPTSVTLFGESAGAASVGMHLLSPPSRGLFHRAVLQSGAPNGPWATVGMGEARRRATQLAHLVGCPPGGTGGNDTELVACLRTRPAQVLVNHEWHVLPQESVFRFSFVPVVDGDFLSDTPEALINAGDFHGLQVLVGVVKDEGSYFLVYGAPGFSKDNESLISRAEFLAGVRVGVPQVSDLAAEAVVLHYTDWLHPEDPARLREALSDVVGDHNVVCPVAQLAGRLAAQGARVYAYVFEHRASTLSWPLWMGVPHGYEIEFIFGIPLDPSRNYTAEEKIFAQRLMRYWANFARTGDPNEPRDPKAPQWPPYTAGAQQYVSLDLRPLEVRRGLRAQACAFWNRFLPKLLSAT
T3 sequence (O42275 24-633): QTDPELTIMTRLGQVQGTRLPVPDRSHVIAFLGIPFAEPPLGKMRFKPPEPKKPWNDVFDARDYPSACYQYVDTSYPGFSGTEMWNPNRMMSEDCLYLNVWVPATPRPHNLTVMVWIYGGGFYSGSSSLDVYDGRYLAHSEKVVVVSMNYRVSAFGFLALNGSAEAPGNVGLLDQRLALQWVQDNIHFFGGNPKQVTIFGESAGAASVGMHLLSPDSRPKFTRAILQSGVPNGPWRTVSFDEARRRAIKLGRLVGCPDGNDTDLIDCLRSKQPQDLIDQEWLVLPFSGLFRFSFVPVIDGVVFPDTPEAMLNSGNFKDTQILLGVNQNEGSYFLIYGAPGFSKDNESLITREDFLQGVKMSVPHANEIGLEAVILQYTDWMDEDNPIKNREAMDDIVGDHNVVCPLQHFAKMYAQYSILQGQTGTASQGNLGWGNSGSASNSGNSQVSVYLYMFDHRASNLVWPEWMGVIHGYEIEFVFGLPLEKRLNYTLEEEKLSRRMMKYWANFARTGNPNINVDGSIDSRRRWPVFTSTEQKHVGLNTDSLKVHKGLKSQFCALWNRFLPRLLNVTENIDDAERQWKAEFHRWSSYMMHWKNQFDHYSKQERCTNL
T1 sequence (P06276 29-557 N45Q/N483Q/N509Q/N514Q limits assumed): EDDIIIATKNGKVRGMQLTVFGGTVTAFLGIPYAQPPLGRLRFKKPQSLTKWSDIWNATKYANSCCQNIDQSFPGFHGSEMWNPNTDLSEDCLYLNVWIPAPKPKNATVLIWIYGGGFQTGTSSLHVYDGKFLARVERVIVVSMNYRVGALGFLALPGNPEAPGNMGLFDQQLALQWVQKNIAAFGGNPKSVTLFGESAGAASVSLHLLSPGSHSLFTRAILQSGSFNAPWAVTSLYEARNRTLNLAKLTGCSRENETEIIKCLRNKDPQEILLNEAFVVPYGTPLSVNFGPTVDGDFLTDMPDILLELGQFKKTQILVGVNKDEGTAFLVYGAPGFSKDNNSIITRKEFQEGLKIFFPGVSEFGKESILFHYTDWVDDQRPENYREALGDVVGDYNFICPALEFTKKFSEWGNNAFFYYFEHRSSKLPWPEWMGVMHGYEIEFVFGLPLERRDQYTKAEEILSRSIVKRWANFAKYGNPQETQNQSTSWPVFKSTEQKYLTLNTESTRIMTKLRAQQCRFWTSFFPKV

O=C(/C=C/C=C/c1ccc2c(c1)OCO2)NCCCC[P+](c1ccccc1)(c1ccccc1)c1ccccc1.[Br-] [Compound 2, (4-((2E,4E)-5-(Benzo[d][1,3]dioxol-5-yl)penta-2,4-dienamido)butyl)triphenylphosphonium bromide]
IC50 [1]: 0.2 ± 0.04 µM | SI (2): hBChE selectivity index = IC50(hAChE)/IC50(hBChE) [1]: 55 | IC50 [2]: 11 ± 1 µM | IC50 [3]: 6.39 ± 0.28 µM | IC50 [4]: 12.4 ± 1.9 µM | SI (3): hMAO-B selectivity index = IC50 (hMAO-A)/IC50 (hMAO-B) [4]: 0.07 | effect on NR uptake [5]: remained constant | IC50 [6]: 0.888 ± 0.022 µM | ROO• radical scavenging [7]: unable to scavenge ROO• radicals

O=C(/C=C/C=C/c1ccc2c(c1)OCO2)NCCCCCC[P+](c1ccccc1)(c1ccccc1)c1ccccc1.[Br-] [Compound 3, (6-((2E,4E)-5-(Benzo[d][1,3]dioxol-5-yl)penta-2,4-dienamido)hexyl)triphenylphosphonium bromide]
IC50 [1]: 3 ± 0.4 µM | SI (2): hBChE selectivity index = IC50(hAChE)/IC50(hBChE) [1]: 0.67 | IC50 [2]: 2 ± 0.2 µM | IC50 [3]: 5.74 ± 0.32 µM | IC50 [4]: 4.64 ± 0.29 µM | SI (3): hMAO-B selectivity index = IC50 (hMAO-A)/IC50 (hMAO-B) [4]: 0.26 | lysosomal toxicity (NR uptake) ([5]; at concentrations above 12.5 µM): significant lysosomal toxicity | IC50 [6]: 1.23 ± 0.13 µM | ROO• radical scavenging [7]: unable to scavenge ROO• radicals

O=C(/C=C/C=C/c1ccc(O)c(O)c1)NCCCC[P+](c1ccccc1)(c1ccccc1)c1ccccc1.[Br-] [Compound 4, (4-((2E,4E)-5-(3,4-Dihydroxyphenyl)penta-2,4-dienamido)butyl)triphenylphosphonium bromide]
IC50 [1]: 3 ± 0.2 µM | SI (2): hBChE selectivity index = IC50(hAChE)/IC50(hBChE) [1]: 7.3 | IC50 [2]: 22 ± 2 µM | IC50 [3]: 2.23 ± 0.12 µM | IC50 [4]: 13.5 ± 1.1 µM | SI (3): hMAO-B selectivity index = IC50 (hMAO-A)/IC50 (hMAO-B) [4]: 0.38 | effect on NR uptake [5]: remained constant | IC50 [6]: 5.17 ± 0.54 µM | ORAC-FL Index [7]: 3.3 ± 0.1

O=C(/C=C/C=C/c1ccc(O)c(O)c1)NCCCCCC[P+](c1ccccc1)(c1ccccc1)c1ccccc1.[Br-] [Compound 5, (6-((2E,4E)-5-(3,4-Dihydroxyphenyl)penta-2,4-dienamido)hexyl)triphenylphosphonium bromide]
IC50 [1]: 23 ± 2 µM | SI (2): hBChE selectivity index = IC50(hAChE)/IC50(hBChE) [1]: 0.39 | IC50 [2]: 9 ± 0.5 µM | IC50 [3]: 2.14 ± 0.06 µM | IC50 [4]: 10.9 ± 0.7 µM | SI (3): hMAO-B selectivity index = IC50 (hMAO-A)/IC50 (hMAO-B) [4]: 0.20 | effect on NR uptake [5]: remained constant | IC50 [6]: 2.17 ± 0.28 µM | ORAC-FL Index [7]: 3.1 ± 0.3
